From patent US10624880B2, “Predicting response to alvocidib by mitochondrial profiling” (Tolero Pharmaceuticals, Inc., priority 2015, dated 2020)

Columns and labels:
MV-4-11 cells = test: 24 hour EC50 in MV-4-11 cells; format: cell-based; conditions: Homo sapiens, MV4-11, read-out: 24 hour EC 50
From the text: (§1) Following the treatment, cells were harvested and prepared using standard immunoblotting techniques for detection of MCL-1.

[1] = system: MCL-1, Bcl-xL, and Bcl-2 in Yugen8 cells; test: Immunoblotting of MCL-1, Bcl-xL, Bcl-2 in Yugen8 cells; format: cell-based; conditions: Yugen8, 280 nM
Procedure: The time dependence is observed by monitoring the relative expression of MCL-1, Bcl-xL, and Bcl-2 compared β-actin over time. The relative expression of MCL-1, Bcl-xL, and Bcl-2 was measured at 0-96 hour time points after dosing with 280 nM of alvocidib. In one group, after 24 hours of treatment, media was removed and replaced with fresh media containing 280 nM alvocidib (i.e., a wash step; see FIG. 15A). Yugen8 cells were treated with 280 nM alvocidib in vitro for the times indicated in FIG. 15A-B. Following treatment (and wash step as applicable), cells were harvested and prepared using standard immunoblotting techniques for detection of MCL-1, Bcl-xL, and Bcl-2 expression. […] The time dependence is observed by monitoring the relative expression of MCL-1, Bcl-xL, and Bcl-2 compared β-actin over time. The relative expression of MCL-1, Bcl-xL, and Bcl-2 was measured at 0-96 hour time points after dosing with 280 nM of alvocidib. Cells were treated 3 times (three 24 hour periods, broken by two 24 hour breaks) with 280 nM alvocidib in vitro. Following treatment, cells were harvested and prepared using standard immunoblotting techniques for detection of MCL-1, Bcl-xL, and Bcl-2 expression.

[2] = system: MCL-1, Bcl-xL, and Bcl-2 in MV-4-11 cells; test: Immunoblotting of MCL-1, Bcl-xL, Bcl-2 in MV-4-11 cells; format: cell-based
Procedure: The dose dependence is observed by monitoring the relative expression of MCL-1 compared to β-actin when cells are dosed with alvocidib at concentrations of 0-8 μM. MV4-11 cells were treated with alvocidib for 2 hrs in vitro. Following treatment, cells were harvested and prepared using standard immunoblotting techniques for detection of MCL-1 to probe for changes relative to β-actin.
The time dependence is observed by monitoring the relative expression of MCL-1, Bcl-xL, and Bcl-2 compared β-actin over time. The relative expression of MCL-1, Bcl-xL, and Bcl-2 was measured at 1-96 hour time points after dosing with 80 nM of alvocidib.
Following treatment, cells were harvested and prepared using standard immunoblotting techniques for detection of MCL-1, Bcl-xL, and Bcl-2 expression.

MCL-1 mRNA in A549 cells = test: RT-PCR of MCL-1 mRNA in A549 cells; format: cell-based, human; conditions: A549, alvocidib 0-8 μM, 2 hrs, FIG. 8
Procedure: The A549 cell line is a human adenocarcinoma cell line, which expresses MCL-1. […] A549 cells were treated with alvocidib for 2 hrs in vitro. Following treatment, cells were harvested and prepared using a standard RT-PCR assay for detection of MCL-1 mRNA to probe for changes relative to controls.

MCL-1 in MV-4-11 cells = test: MCL-1 immunoblotting in the ACM (or FLAM) regimen modeled in vitro; format: cell-based
From the text: as §1

[3] = system: MCL-1, Bcl-xL, and Bcl-2 in Panc-1 cells; test: Immunoblotting of MCL-1, Bcl-xL, Bcl-2 in Panc-1 cells; format: cell-based, human; conditions: Panc-1, 730 nM
Procedure: The time dependence is observed by monitoring the relative expression of MCL-1, Bcl-xL, and Bcl-2 compared β-actin over time. The relative expression of MCL-1, Bcl-xL, and Bcl-2 was measured at 0-96 hour time points after dosing with 730 nM of alvocidib. In one group, after 24 hours of treatment, media was removed and replaced with fresh media containing 730 nM alvocidib (i.e., a wash step; see FIG. 13A). Panc-1 cells were treated with 730 nM alvocidib in vitro for the times indicated in FIG. 13A-B. Following treatment (and wash step as applicable), cells were harvested and prepared using standard immunoblotting techniques for detection of MCL-1, Bcl-xL, and Bcl-2 expression. […] The time dependence is observed by monitoring the relative expression of MCL-1, Bcl-xL, and Bcl-2 compared β-actin over time. The relative expression of MCL-1, Bcl-xL, and Bcl-2 was measured at 0-96 hour time points after dosing with 730 nM of alvocidib. Cells were treated 3 times (three 24 hour periods, broken by two 24 hour breaks) with 730 nM alvocidib in vitro. Following treatment, cells were harvested and prepared using standard immunoblotting techniques for detection of MCL-1, Bcl-xL, and Bcl-2 expression.

[4] = system: MCL-1, Bcl-xL, and Bcl-2 in A549 cells; test: Immunoblotting of MCL-1, Bcl-xL, Bcl-2 in A549 cells; format: cell-based, human; conditions: A549, 350 nM
Procedure: The relative expression of MCL-1, Bcl-xL, and Bcl-2 was measured at 0-96 hour time points after dosing with 350 nM of alvocidib. In one group, after 24 hours of treatment, media was removed and replaced with fresh media […] (i.e., a wash step; see FIG. 9A).
A549 cells were treated with 350 nM alvocidib in vitro for the times indicated in FIG. 9A-B. Following treatment (and wash step as applicable), cells were harvested and prepared using standard immunoblotting techniques for detection of MCL-1, Bcl-xL, and Bcl-2 expression.
The relative expression of MCL-1, Bcl-xL, and Bcl-2 was measured at 0-96 hour time points after dosing with 350 nM of alvocidib.
Cells were treated 3 times (three 24 hour periods, broken by two 24 hour breaks) with 350 nM alvocidib in vitro. Following treatment, cells were harvested and prepared using standard immunoblotting techniques for detection of MCL-1, Bcl-xL, and Bcl-2 expression.

N-Myc in SK-N-AS cells = test: Immunoblotting of N-Myc in SK-N-AS cells; format: cell-based, human; conditions: 300 nM, 1-24 hour, FIG. 11
Procedure: The SK-N-AS cell line is a human neuroblastoma cell line that expresses N-Myc, which is a key oncogenic protein. […] The time dependence is observed by monitoring the relative expression of N-Myc compared β-actin over time. The relative expression of N-Myc was measured at 1-24 hour time points after dosing with 300 nM of alvocidib.
Following treatment, cells were harvested and prepared using standard immunoblotting techniques for detection of N-Myc expression.

[5] = system: MCL-1 mRNA in MV-4-11 cells; test: RT-PCR of MCL-1 mRNA in MV-4-11 cells; format: cell-based
Procedure: An AML cell line, MV-4-11, expresses MCL-1. MCL-1 is a key anti-apoptotic protein in MV-4-11 cells. Alvocidib, a CDK9 inhibitor, lowers the expression of MCL-1 mRNA, which is already well documented in the literature. […] MV-4-11 cells were treated with alvocidib for 2 hrs in vitro. Following treatment, cells were harvested and prepared using a standard real time PCR (RT-PCR) assay for detection of MCL-1 mRNA to probe for changes relative to controls.
The relative expression of MCL-1 mRNA was measured at 0.5-16 hour time points after dosing with 100 nM of alvocidib.
Following treatment, cells were harvested and prepared using standard RT-PCR assay for detection of MCL-1 mRNA expression.

| EC50 (MV-4-11 cells) [nM] | SMILES | relative expression of MCL-1, Bcl-xL, and Bcl-2 compared β-actin over time ([1]; 0-96 hour, with and without wash step, FIG. 15A-B) | relative expression of MCL-1, Bcl-xL, and Bcl-2 compared β-actin over time ([1]; repeat dosing regimen, FIG. 16) | relative expression of MCL-1, Bcl-xL, and Bcl-2 compared β-actin over time ([2]; MV-4-11, 80 nM, 1-96 hour, FIG. 10B) | relative expression of MCL-1 compared to β-actin ([2]; MV-4-11, alvocidib 0-8 μM, 2 hrs, FIG. 10A) | relative expression of MCL-1 mRNA compared to controls (MCL-1 mRNA in A549 cells) | relative expression of MCL-1 compared to β-actin (MCL-1 in MV-4-11 cells; MV-4-11, each treatment dosed at its 24 hour EC50, FIG. 17B) | expression of MCL-1 over the course of the ACM (or FLAM) regimen (MCL-1 in MV-4-11 cells; modeled in vitro, MV-4-11, FIG. 17A) | relative expression of MCL-1, Bcl-xL, and Bcl-2 compared β-actin over time ([3]; 0-96 hour, with and without wash step, FIG. 13A-B) | relative expression of MCL-1, Bcl-xL, and Bcl-2 compared β-actin over time ([3]; repeat dosing regimen, FIG. 14) | relative expression of MCL-1, Bcl-xL, and Bcl-2 compared β-actin over time ([4]; 0-96 hour, with and without wash step, FIG. 9A-B) | relative expression of MCL-1, Bcl-xL, and Bcl-2 compared β-actin over time ([4]; repeat dosing (three 24 hour periods, two 24 hour breaks), FIG. 12) | relative expression of N-Myc compared β-actin over time (N-Myc in SK-N-AS cells) | time post-treatment at which MCL-1 mRNA expression was reduced ([5]; MV-4-11, 100 nM) [min] | relative expression of MCL-1 mRNA compared controls over time ([5]; MV-4-11, 100 nM, 0.5-16 hour, FIG. 7B) | relative expression of MCL-1 mRNA compared to controls ([5]; MV-4-11, alvocidib 0-8 μM, 2 hrs, FIG. 7A) |
| --- | --- | --- | --- | --- | --- | --- | --- | --- | --- | --- | --- | --- | --- | --- | --- | --- |
| 1000 | CC(=O)c1c(C)c2cnc(Nc3ccc(N4CCNCC4)cn3)nc2n(C2CCCC2)c1=O [palbociclib] | – | – | – | – | – | – | – | – | – | – | – | – | – | – | – |
| 80 | CN1CC[C@H](c2c(O)cc(O)c3c(=O)cc(-c4ccccc4Cl)oc23)[C@H](O)C1 [alvocidib] | down-regulates MCL-1 in Yugen8 cells in a time dependent manner | down-regulates MCL-1 in Yugen8 in a time-dependent manner | down-regulates MCL-1 in MV-4-11 in a time-dependent manner | down-regulates MCL-1 in MV-4-11 cells in a dose dependent manner | down-regulates MCL-1 mRNA in A549 cells in a dose dependent manner | lower the expression of MCL-1 | represses super enhancer complex regulated genes, including expression of MCL-1 | down-regulates MCL-1 in Panc-1 cells in a time dependent manner | down-regulates MCL-1 in Panc-1 cells in a time-dependent manner | down-regulates MCL-1 in A549 in a time-dependent manner | down-regulates MCL-1 in A549 cells in a time-dependent manner | down-regulates N-Myc in SK-N-AS cells in a time-dependent manner | ≤ 30 | down-regulates MCL-1 mRNA in MV-4-11 in a time-dependent manner | down-regulates MCL-1 mRNA in MV-4-11 cells in a dose dependent manner |
